Source: ChEMBL document CHEMBL1158192, “Niruriside, a new HIV REV/RRE binding inhibitor from Phyllanthus niruri” (J Nat Prod, 1996)
pIC50: −log10 of the molar value. Activity calls are given as the source filed them. The rule behind the calls is not given here.

Key:
[1] = Inhibition of HIV1 REV protein binding to HIV1 [P33]RRE RNA by liquid scintillation assay; parameters: species or system Human immunodeficiency virus 1
[2] = Inhibition of R17 coat protein binding to [33P]labeled R17 operator RNA
[3] = tested on: Human immunodeficiency virus 1; assay: Antiviral activity against HIV1 RF in CEM-SS cells assessed as cell protection against virus infection up to 260 uM by XTT assay; assay type: functional, organism-based
[4] = Ratio of IC50 for R17 activity to IC50 for HIV1 Rev activity

In the case of `CC(=O)OC[C@H]1O[C@H](O[C@]2(COC(C)=O)O[C@H](COC(=O)/C=C/c3ccccc3)[C@@H](O)[C@@H]2OC(=O)/C=C/c2ccccc2)[C@H](OC(C)=O)[C@@H](O)[C@@H]1OC(C)=O` [NIRURIDE], the pIC50 [1] was 5.48, the pIC50 [2] was under 3.89 and the Activity [3] was “inactive”. It also gave a Ratio IC50 [4] of over 40.
